In patent US20250282790A1 (Temple University-Of The Commonwealth System of Higher …, priority 2016, published 2025) one finds IC50 data, which are given here for 17 compounds.

This test deals with 5HT7 receptors (Homo sapiens (Human), UniProt P34969). Description: Radiolabel Binding Studies for Serotonin 5-HT7 Receptors, Method 2 ([3H]-5HT competition; Ki and percent inhibition at 10 μM). To be noted: radioligand competition binding. On the procedure:
Radiolabel Binding Studies for Serotonin 5-HT7 Receptors, Method 2:
A solution of the compound of the disclosure to be tested is prepared as a 1-mg/ml stock in Assay Buffer or DMSO according to its solubility. A similar stock of the reference compound chlorpromazine is also prepared as a positive control. Eleven dilutions (5×assay concentration) of the compound of the disclosure and chlorpromazine are prepared in the Assay Buffer by serial dilution to yield final corresponding assay concentrations ranging from 10 pM to 10 μM.
A stock concentration of 5 nM [^3H]-5-Hydroxytryptamine ([^3H]-5HT) is prepared in 50 mM Tris-HCl, 10 mM MgCl2, 1 mM EDTA, pH 7.4 (Assay Buffer). Aliquots (50 μl) of radioligand are dispensed into the wells of a 96-well plate containing 100 μl of Assay Buffer. Duplicate 50-μl aliquots of the compound of the disclosure test and chlorpromazine positive control reference compound serial dilutions are added.
Membrane fractions of cells expressing recombinant 5HT7 receptors (50 L) are dispensed into each well. The membranes are prepared from stably transfected cell lines expressing 5HT7 receptors cultured on 10-cm plates by harvesting PBS-rinsed monolayers, resuspending and lysing in chilled, hypotonic 50 mM Tris-HCl, pH 7.4, centrifuging at 20,000×g, decanting the supernatant and storing at −80° C.; the membrane preparations are resuspended in 3 ml of chilled Assay Buffer and homogenized by several passages through a 26 gauge needle before using in the assay.
The 250-μl reactions are incubated at room temperature for 1.5 hours, then harvested by rapid filtration onto 0.3% polyethyleneimine-treated, 96-well filter mats using a 96-well Filtermate harvester. Four rapid 500-μl washes are performed with chilled Assay Buffer to reduce non-specific binding. The filter mats are dried, then scintillant is added to the filters and the radioactivity retained on the filters is counted in a Microbeta scintillation counter.
Raw data (dpm) representing total radioligand binding (i.e., specific+non-specific binding) are plotted as a function of the logarithm of the molar concentration of the competitor (i.e., test or reference compound). Non-linear regression of the normalized (i.e., percent radioligand binding compared to that observed in the absence of test or reference compound) raw data is performed in Prism 4.0 (GraphPad Software) using the built-in three parameter logistic model describing ligand competition binding to radioligand-labeled sites:
where bottom equals the residual radioligand binding measured in the presence of 10 μM reference compound (i.e., non-specific binding) and top equals the total radioligand binding observed in the absence of competitor. The log IC50 (i.e., the log of the ligand concentration that reduces radioligand binding by 50%) is thus estimated from the data and used to obtain the Ki by applying the Cheng-Prusoff approximation:
where [ligand] equals the assay radioligand concentration and KD equals the affinity constant of the radioligand for the target receptor.
Compounds of the disclosure are also screened at a single concentration of 10 μM using the same method described for the Radiolabel Binding Studies for Serotonin 5HT7 receptors to determine the percent inhibition of [^3H]-5HT binding.
In general terms: In a radioligand displacement assay an active substance lowers the binding of a labelled ligand.

As usually defined, the IC50 is the midpoint of a concentration-inhibition curve. Read a low IC50 as greater potency in that assay.

Sequence of 5HT7 receptors (P34969 whole entry): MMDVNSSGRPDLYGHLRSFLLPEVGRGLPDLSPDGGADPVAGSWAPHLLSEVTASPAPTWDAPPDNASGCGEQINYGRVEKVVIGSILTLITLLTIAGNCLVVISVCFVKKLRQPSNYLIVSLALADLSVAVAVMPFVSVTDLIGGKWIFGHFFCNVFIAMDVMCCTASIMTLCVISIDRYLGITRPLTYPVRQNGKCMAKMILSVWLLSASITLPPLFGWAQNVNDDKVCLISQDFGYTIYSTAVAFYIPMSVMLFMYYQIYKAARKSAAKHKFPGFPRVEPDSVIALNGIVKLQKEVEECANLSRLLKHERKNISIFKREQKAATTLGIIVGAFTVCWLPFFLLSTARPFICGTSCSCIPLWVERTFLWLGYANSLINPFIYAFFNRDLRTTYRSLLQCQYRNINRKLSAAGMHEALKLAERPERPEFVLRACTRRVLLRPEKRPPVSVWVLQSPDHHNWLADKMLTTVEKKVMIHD

As to `Cc1ccc(N2CCN(CCC3CC4(CCN(Cc5ccccc5)CC4)C(=O)O3)CC2)cc1` (centres unmarked) [Entry 1], the IC50 amounted to 0.018 µM.

In turn, `Cc1ccc(N2CCN(CCC3CC4(CCN(S(=O)(=O)c5ccccc5)CC4)C(=O)O3)CC2)cc1` (centres unmarked) [Entry 10] yielded an IC50 of 0.064 µM.

In turn, `Cc1ccc(N2CCN(CCC3CC4(CCN(S(=O)(=O)C5CCOCC5)CC4)C(=O)O3)CC2)cc1` (centres unmarked) [Example 13] came in with an IC50 of 0.096 µM.

In the case of `COc1ccc(S(=O)(=O)N2CCC3(CC2)CC(CCN2CCN(c4ccc(C)cc4)CC2)OC3=O)cc1` (centres unmarked) [Entry 11], the IC50 came out at 0.077 µM.

As for `CS(=O)(=O)N1CCC2(CC1)CC(CCN1CCN(c3ccc(C#N)cc3N3CCOCC3)CC1)OC2=O` (centres unmarked) [Entry 19], the IC50 stood at 0.461 µM.

In the case of `CS(=O)(=O)N1CCC2(CC1)CC(CCN1CCN(c3ccc(O)cc3N3CCOCC3)CC1)OC2=O` (centres unmarked) [Example 21], the IC50 was 0.075 µM.

Consider `Cc1ccc(N2CCN(CCC3CC4(CCN(S(=O)(=O)c5ccc(Cl)cc5)CC4)C(=O)O3)CC2)cc1` (centres unmarked) [Example 12], for which the IC50 came out at 0.108 µM.

For the compound `CC(=O)N1CCC2(CC1)CC(CCN1CCN(c3ccc(C)cc3)CC1)OC2=O` (centres unmarked) [Entry 4], the IC50 was 0.122 µM.

`CS(=O)(=O)N1CCC2(CC1)CC(CCN1CCN(c3ccc(Cl)cc3)CC1)OC2=O` (centres unmarked) [Entry 9] showed an IC50 of 0.303 µM.

`CS(=O)(=O)N1CCC2(CC1)CC(CCN1CCN(c3ccc(O)cc3)CC1)OC2=O` (centres unmarked) [Example 22] came in with an IC50 of 0.202 µM.

Consider `CS(=O)(=O)N1CCC2(CC1)CC(CCN1CCN(c3ccccc3N3CCOCC3)CC1)OC2=O` (centres unmarked) [Entry 7], for which the IC50 was 0.034 µM.

The compound `Cc1ccc(N2CCN(CCC3CC4(CCNCC4)C(=O)O3)CC2)cc1` (centres unmarked) [Entry 2] showed an IC50 of 0.149 µM.

As to `Cc1ccc(N2CCN(CCC3CC4(CCN(S(C)(=O)=O)CC4)C(=O)O3)CC2)cc1` (centres unmarked) [Entry 6], the IC50 was 0.093 µM.

With `COC(=O)N1CCC2(CC1)CC(CCN1CCN(c3ccc(C)cc3)CC1)OC2=O` (centres unmarked) [Entry 3], the IC50 is 0.081 µM.

Compound `CNC(=O)N1CCC2(CC1)CC(CCN1CCN(c3ccc(C)cc3)CC1)OC2=O` (centres unmarked) [Entry 5] displayed an IC50 of 0.102 µM.

`Cc1ccc(N2CCN(CCC3CC4(CCN(S(C)(=O)=O)CC4)C(=O)O3)CC2)c(N2CCOCC2)c1` (centres unmarked) [Example 20] displayed an IC50 of 0.067 µM.

With `Cc1nc2cccc(N3CCN(CCC4CC5(CCN(S(C)(=O)=O)CC5)C(=O)O4)CC3)c2[nH]1` (centres unmarked) [Entry 8], the IC50 turned out to be 0.046 µM.
